Laboratory results reported in US20250283896A1, “PROBES AND METHODS FOR TARGETED VISUALIZATION OF NLRP3 INFLAMMASOMES” (VANDERBILT UNIVERSITY, priority 2022, published 2025).

How the values were obtained:
[1] = system: primary mouse retinal microvascular endothelial cells (MRMEC); test: Cell viability assay with Calcein Deep Red AM ester; format: cell-based; conditions: 20 h, 70% ethanol in water; p<0.01
Method: Cell culture: Bone marrow-derived macrophages (BMDM), isolated from adult C57BL/6 mouse bone marrow, were purchased from ScienCell Research Laboratories (Carlsbad, CA) and cultured in ScienCell's phenol red-free Macrophage Medium (MaM) supplemented with 5% fetal bovine serum (FBS), Macrophage Growth Supplement (MaGS), and 1% Penicillin-Streptomycin (Pen, 100 U/mL; Strep, 100 μg/mL). Mouse Primary Retinal Microvascular Endothelial Cells (MRMEC), isolated from C57BL/6 mice, were purchased from Cell Biologics Inc. […] The medium was additionally supplemented with 10% FBS (R&D Systems, Minneapolis, MN). BMDMs and […] were incubated at 37° C., 5% CO2, and 95% relative humidity. Cell viability assay: […] (Passage 4) were seeded on sterile black 96-well plates in complete medium at a density of 1.5×10^4 cells per well. […] This fluorescent compound is redshifted relative to […]=510/540 nm), which is necessary to avoid interference from any InflammaProbe-1-dependent fluorescence during fluorometric measurements. […] Finally, fluorometric measurements were performed at ex/em=620/660 nm using the Cytation 5 microplate reader (BioTek Instruments, Inc., Winooski, VT). Fluorescence intensities were plotted as the percentage of cell viability relative to the control group. The data were expressed as the mean±SD of 6 replicates per group.

NLRP3 inflammasome = molecular target: T1, NLRP3 inflammasome (Mus musculus, UniProt Q8R4B8); test: Inhibition assay of IL-1β (ELISA) in LPS-primed and nigericin-stimulated BMDMs; format: cell-based, murine
T1 construct: InflammaProbe-1 could selectively stain macrophages that have been induced to express NLRP3; host or cells: primary C57BL/6 mouse bone marrow-derived macrophages (BMDM)
Method: (§1) Cell culture: Bone marrow-derived macrophages (BMDM), isolated from adult C57BL/6 mouse bone marrow, were purchased from ScienCell Research Laboratories (Carlsbad, CA) and cultured in ScienCell's phenol red-free Macrophage Medium (MaM) supplemented with 5% fetal bovine serum (FBS), Macrophage Growth Supplement (MaGS), and 1% Penicillin-Streptomycin (Pen, 100 U/mL; Strep, 100 μg/mL). Mouse Primary Retinal Microvascular Endothelial Cells (MRMEC), isolated from C57BL/6 mice, were purchased from Cell Biologics Inc. (Chicago, IL) and cultured in Cell Biologics' phenol red-free Endothelial Cell Medium supplemented with 0.1% VEGF, 0.1% Heparin, 0.1% EGF, 0.1% ECGS, 0.1% Hydrocortisone, 2 mM L-Glutamine, and 1% Antibiotic-Antimycotic. The medium was additionally supplemented with 10% FBS (R&D Systems, Minneapolis, MN). BMDMs and MRMECs were incubated at 37° C., 5% CO2, and 95% relative humidity.
(§2) Inhibition assay of IL-1β and TNF-α: BMDMs were seeded in 12-well plates at a density of 5×10^4 cells per well. After an overnight incubation, the cells were primed with 50 ng/mL LPS for 3 h, treated with 1 to 10 µM InflammaProbe-1 or CY-09 for 1 h, and stimulated with 10 μM nigericin for another hour to induce NLRP3 activation, as described in the literature. Cell culture supernatants were assayed for mouse IL-1β and TNF-α by performing enzyme-linked immunosorbent assays (ELISA; Invitrogen, Waltham, MA) in accordance with the manufacturer's instructions. The data were expressed as the mean±SD of 3 replicates per group.

NLRP3 = NLRP3 (Mus musculus, UniProt Q8R4B8); conditions: murine model, literature; cited from earlier work
TNF-α = test: Off-target assay of LPS-induced TNF-α secretion (ELISA) in BMDMs; format: cell-based, murine; conditions: 10 μM; in comparison to InflammaProbe-1, p<0.05
Method: as §1
as §2, with “Cell culture supernatants were assayed for mouse IL-1β and TNF-α by performing enzyme-linked immunosorbent assays (ELISA; Invitrogen, Waltham, MA) in accordance with the manufacturer's instructions.” left out

T1 sequence (Q8R4B8 whole entry): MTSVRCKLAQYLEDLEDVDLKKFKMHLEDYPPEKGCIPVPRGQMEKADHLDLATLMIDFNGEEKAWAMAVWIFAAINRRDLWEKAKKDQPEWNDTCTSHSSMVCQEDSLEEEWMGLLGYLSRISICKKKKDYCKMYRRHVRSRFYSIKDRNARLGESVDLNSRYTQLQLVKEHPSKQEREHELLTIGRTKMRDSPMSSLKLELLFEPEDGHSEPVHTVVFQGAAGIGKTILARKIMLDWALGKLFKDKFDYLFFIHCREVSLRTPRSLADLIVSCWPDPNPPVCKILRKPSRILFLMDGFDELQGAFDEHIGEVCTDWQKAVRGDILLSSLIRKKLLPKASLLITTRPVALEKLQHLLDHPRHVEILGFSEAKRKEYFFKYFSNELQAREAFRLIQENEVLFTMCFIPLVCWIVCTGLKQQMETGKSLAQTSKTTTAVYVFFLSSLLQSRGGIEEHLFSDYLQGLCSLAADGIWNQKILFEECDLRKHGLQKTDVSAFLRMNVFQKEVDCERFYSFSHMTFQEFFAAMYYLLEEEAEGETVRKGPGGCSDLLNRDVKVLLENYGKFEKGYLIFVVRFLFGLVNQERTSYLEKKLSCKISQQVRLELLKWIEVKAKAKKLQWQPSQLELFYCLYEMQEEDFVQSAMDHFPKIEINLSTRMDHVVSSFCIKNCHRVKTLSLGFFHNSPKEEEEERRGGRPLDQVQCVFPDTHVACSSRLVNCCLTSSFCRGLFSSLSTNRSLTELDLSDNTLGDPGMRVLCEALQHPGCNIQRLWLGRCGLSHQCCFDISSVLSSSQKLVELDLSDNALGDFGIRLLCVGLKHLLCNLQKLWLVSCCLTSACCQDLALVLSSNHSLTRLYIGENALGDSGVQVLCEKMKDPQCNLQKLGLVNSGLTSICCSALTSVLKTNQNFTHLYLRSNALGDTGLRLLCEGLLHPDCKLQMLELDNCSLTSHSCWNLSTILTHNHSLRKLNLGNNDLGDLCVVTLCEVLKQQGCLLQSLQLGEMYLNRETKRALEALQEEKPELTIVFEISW
Chain of NLRP3 (Q8R4B8 whole entry): as above

SMILES	viability of MRMECs (positive control) [1]	decrease of IL-1β levels in comparison to the LPS and nigericin control (NLRP3 inflammasome; 1 μM, p<0.05)	decrease of IL-1β levels in comparison to the LPS and nigericin control (NLRP3 inflammasome; 5 μM, p<0.01)	decrease of IL-1β levels in comparison to the LPS and nigericin control (NLRP3 inflammasome; 10 μM, p<0.01)	inhibition of NLRP3-mediated secretion of IL-1β (NLRP3 inflammasome; LPS-primed and nigericin-stimulated murine BMDM, 1 to 10 μM)	NLRP3-mediated cellular secretion of IL-1β (NLRP3)	effect on levels of TNF-α (TNF-α)
CCO [70% ethanol, ethanol]	significantly decreased	–	–	–	–	–	–
O=C(O)c1ccc(/C=C2/SC(=S)N(Cc3cccc(C(F)(F)F)c3)C2=O)cc1 [CY-09]	–	~1.3 fold	~2 fold	~4 fold	dose-dependently inhibited	suppressed	significantly decreased
